Target: T1, SSTR-1 (Homo sapiens, UniProt P30872)
T1 construct: expressed in transfected cells
Assay: Radioligand binding screen against somatostatin subtype SSTR-1
Conditions: Table 8; read-out: Ki SSTR1
Method: (§1) Receptor membrane preparations containing the desired cloned receptor (for example cloned human somatostatin receptor subtype 5, SSTR5) and radio-labeled ligand (for example 3-[^125I]iodotyrosyl^11 Somatostatin-14)) were diluted at the concentration required for testing and according to the specific parameters associated with the selected receptor-ligand combination, including receptor Bmax, ligand Kd and any other parameters necessary to optimize the experimental conditions. When tested for competition activity to the reference ligand, “compound 1” was mixed with membrane suspension and the radiolabeled reference ligand (with or without an excess of cold ligand to the receptor for determination of non-specific binding) and incubated at the temperature required by internal standard operating procedures. Following incubation, the binding reaction was stopped by the addition of ice-cold washing buffer and filtered on appropriate filters, which are then counted. Data analysis and curve-fitting was performed with XLfit (IDBS).
(§2) 10 mM solutions of test compounds in 100% DMSO were prepared. ˜160 μl was used for each dilution (20 μl/well in triplicate).
(§3) A 1.25 mM assay stock was prepared by making a 1:8 dilution of the 10 mM solution. (To 30 μL of the 10 mM solution was added 210 μL milli-Q H2O. A 1:5 dilution series in milli-Q H2O was then prepared.
(§4) In primary screening experiments compounds were tested in duplicate for a particular concentration.

T1 sequence (P30872 whole entry, species assumed): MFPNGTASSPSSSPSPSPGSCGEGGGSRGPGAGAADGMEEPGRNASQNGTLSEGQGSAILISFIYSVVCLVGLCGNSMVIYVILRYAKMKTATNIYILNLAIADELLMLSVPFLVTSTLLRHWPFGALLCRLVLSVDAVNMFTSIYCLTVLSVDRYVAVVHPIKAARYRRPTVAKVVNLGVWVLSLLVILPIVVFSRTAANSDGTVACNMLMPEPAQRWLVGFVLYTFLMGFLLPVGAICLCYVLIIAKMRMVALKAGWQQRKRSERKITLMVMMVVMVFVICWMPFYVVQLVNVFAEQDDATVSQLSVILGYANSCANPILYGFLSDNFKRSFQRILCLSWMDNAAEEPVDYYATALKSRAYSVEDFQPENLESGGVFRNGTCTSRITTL

Row | SMILES | Ki [µM]
1 | COC[C@H]1O[C@@H](OCc2ccc3ccccc3c2)[C@H](NC(=O)CCN=C(N)N)[C@H](OCc2ccc3ccccc3c2)[C@@H]1O [Compound 8] | 3.09
2 | COC[C@H]1OC(OCc2ccc3ccccc3c2)[C@H](NC(=O)CCCN)[C@@H](OCc2ccc3ccccc3c2)[C@@H]1O (stereo partly drawn) [Compound 11] | 9.22
3 | COC[C@H]1O[C@@H](OCc2ccc3ccccc3c2)[C@H](NC(=O)CCCN)[C@@H](OCc2ccc(Cl)cc2)[C@@H]1O [Compound 12] | > 10
4 | COC[C@H]1O[C@H](OCc2ccc3ccccc3c2)[C@H](NC(=O)CCCN)[C@@H](OCc2ccc(Cl)cc2)[C@@H]1O [Compound 13] | > 10
5 | CO[C@H]1[C@H](O)[C@@H](COCc2ccc3ccccc3c2)OC(OCc2ccc(Cl)cc2)[C@@H]1NC(=O)C1CCCN(C(=N)N)C1 (stereo partly drawn) [Compound 14] | > 10
6 | COC[C@H]1O[C@H](OCc2ccc3ccccc3c2)[C@H](NC(=O)CCN)[C@H](OCc2ccc3ccccc3c2)[C@@H]1O [Compound 15] | 1.96

Target: T2, SSTR-2 (Homo sapiens, UniProt P30874)
T2 construct: expressed in transfected cells
T2 sequence (P30874 whole entry): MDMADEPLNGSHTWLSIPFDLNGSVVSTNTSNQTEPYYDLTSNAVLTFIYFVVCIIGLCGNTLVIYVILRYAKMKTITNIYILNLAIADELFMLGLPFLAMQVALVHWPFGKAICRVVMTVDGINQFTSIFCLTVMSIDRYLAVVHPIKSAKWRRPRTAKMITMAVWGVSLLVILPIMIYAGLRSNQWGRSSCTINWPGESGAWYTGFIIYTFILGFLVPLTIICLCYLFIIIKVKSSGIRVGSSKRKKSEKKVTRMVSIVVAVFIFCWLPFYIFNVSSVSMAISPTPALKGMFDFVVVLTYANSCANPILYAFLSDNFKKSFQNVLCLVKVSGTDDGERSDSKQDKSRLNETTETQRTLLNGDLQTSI
Assay: Radioligand binding screen against somatostatin subtype SSTR-2
Conditions: Table 8; read-out: Ki SSTR2
Method: as §1, §2, §3, §4

Row | SMILES | Ki [µM]
7 | COC[C@H]1O[C@@H](OCc2ccc3ccccc3c2)[C@H](NC(=O)CCN=C(N)N)[C@H](OCc2ccc3ccccc3c2)[C@@H]1O [Compound 8] | 2.01
8 | COC[C@H]1OC(OCc2ccc3ccccc3c2)[C@H](NC(=O)CCCN)[C@@H](OCc2ccc3ccccc3c2)[C@@H]1O (stereo partly drawn) [Compound 11] | 4.85
9 | COC[C@H]1O[C@@H](OCc2ccc3ccccc3c2)[C@H](NC(=O)CCCN)[C@@H](OCc2ccc(Cl)cc2)[C@@H]1O [Compound 12] | 5.06
10 | COC[C@H]1O[C@H](OCc2ccc3ccccc3c2)[C@H](NC(=O)CCCN)[C@@H](OCc2ccc(Cl)cc2)[C@@H]1O [Compound 13] | > 10
11 | CO[C@H]1[C@H](O)[C@@H](COCc2ccc3ccccc3c2)OC(OCc2ccc(Cl)cc2)[C@@H]1NC(=O)C1CCCN(C(=N)N)C1 (stereo partly drawn) [Compound 14] | 1.21
12 | COC[C@H]1O[C@H](OCc2ccc3ccccc3c2)[C@H](NC(=O)CCN)[C@H](OCc2ccc3ccccc3c2)[C@@H]1O [Compound 15] | 1.04

Target: T3, SSTR-3 (Homo sapiens, UniProt P32745)
T3 construct: expressed in transfected cells
T3 sequence (P32745 whole entry): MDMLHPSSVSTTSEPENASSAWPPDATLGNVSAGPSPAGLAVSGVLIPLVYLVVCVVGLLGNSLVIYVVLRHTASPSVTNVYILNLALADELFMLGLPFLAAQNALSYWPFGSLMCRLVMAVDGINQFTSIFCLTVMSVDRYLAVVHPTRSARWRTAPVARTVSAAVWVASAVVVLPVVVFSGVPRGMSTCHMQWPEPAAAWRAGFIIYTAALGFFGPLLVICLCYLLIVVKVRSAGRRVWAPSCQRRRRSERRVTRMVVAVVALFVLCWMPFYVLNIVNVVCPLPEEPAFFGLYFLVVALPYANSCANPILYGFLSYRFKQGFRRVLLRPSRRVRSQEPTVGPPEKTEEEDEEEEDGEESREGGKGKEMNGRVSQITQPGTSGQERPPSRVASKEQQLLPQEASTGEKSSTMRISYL
Assay: Radioligand binding screen against somatostatin subtype SSTR-3
Conditions: Table 8; read-out: Ki SSTR3
Method: as §1, §2, §3, §4

Row | SMILES | Ki [µM]
13 | COC[C@H]1O[C@@H](OCc2ccc3ccccc3c2)[C@H](NC(=O)CCN=C(N)N)[C@H](OCc2ccc3ccccc3c2)[C@@H]1O [Compound 8] | 0.599
14 | CO[C@H]1[C@H](O)[C@@H](COCc2ccc3ccccc3c2)OC(OCc2ccc(Cl)cc2)[C@@H]1NC(=O)C1CCCN(C(=N)N)C1 (stereo partly drawn) [Compound 14] | 0.34
15 | COC[C@H]1O[C@H](OCc2ccc3ccccc3c2)[C@H](NC(=O)CCN)[C@H](OCc2ccc3ccccc3c2)[C@@H]1O [Compound 15] | 0.792

Same assay, conditions: Table 8; shown where Ki could not be determined (NoModel); read-out: IC50 SSTR3 (in parentheses)

Row | SMILES | IC50 [µM]
16 | COC[C@H]1OC(OCc2ccc3ccccc3c2)[C@H](NC(=O)CCCN)[C@@H](OCc2ccc3ccccc3c2)[C@@H]1O (stereo partly drawn) [Compound 11] | 0.002
17 | COC[C@H]1O[C@@H](OCc2ccc3ccccc3c2)[C@H](NC(=O)CCCN)[C@@H](OCc2ccc(Cl)cc2)[C@@H]1O [Compound 12] | 0.429
18 | COC[C@H]1O[C@H](OCc2ccc3ccccc3c2)[C@H](NC(=O)CCCN)[C@@H](OCc2ccc(Cl)cc2)[C@@H]1O [Compound 13] | 0.476

Target: T4, SSTR-4 (Homo sapiens, UniProt P31391)
T4 construct: expressed in transfected cells
T4 sequence (P31391 whole entry): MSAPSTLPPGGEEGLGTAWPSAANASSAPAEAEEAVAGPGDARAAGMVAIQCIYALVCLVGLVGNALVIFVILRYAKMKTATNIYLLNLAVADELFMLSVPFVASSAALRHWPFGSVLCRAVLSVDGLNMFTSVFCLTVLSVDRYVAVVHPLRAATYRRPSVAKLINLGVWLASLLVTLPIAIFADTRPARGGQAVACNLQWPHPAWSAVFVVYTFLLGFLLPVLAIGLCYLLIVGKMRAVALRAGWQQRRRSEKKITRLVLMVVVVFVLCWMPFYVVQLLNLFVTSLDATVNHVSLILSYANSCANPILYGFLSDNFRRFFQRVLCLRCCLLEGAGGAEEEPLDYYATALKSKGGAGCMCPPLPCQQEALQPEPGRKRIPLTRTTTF
Assay: Radioligand binding screen against somatostatin subtype SSTR-4 (SST4 assay)
Conditions: Table 8; read-out: Ki SSTR4
Method: as §1, §2, §3
Assays were performed in triplicate at each concentration within the 1:5 dilution series: 250 μM, 50 μM, 10 μM, […], 0.4 μM, 0.08 μM, 0.016 μM, 0.0032 μM, etc. (for SST4 assay) and 125 μM, 10 μM, 2 μM, 1 μM, 0.5 μM, etc (for SST5 assay).
as §4

Row | SMILES | Ki [µM]
19 | COC[C@H]1O[C@@H](OCc2ccc3ccccc3c2)[C@H](NC(=O)CCN=C(N)N)[C@H](OCc2ccc3ccccc3c2)[C@@H]1O [Compound 8] | 2.77
20 | COC[C@H]1OC(OCc2ccc3ccccc3c2)[C@H](NC(=O)CCCN)[C@@H](OCc2ccc3ccccc3c2)[C@@H]1O (stereo partly drawn) [Compound 11] | 3.98
21 | COC[C@H]1O[C@@H](OCc2ccc3ccccc3c2)[C@H](NC(=O)CCCN)[C@@H](OCc2ccc(Cl)cc2)[C@@H]1O [Compound 12] | > 10
22 | COC[C@H]1O[C@H](OCc2ccc3ccccc3c2)[C@H](NC(=O)CCCN)[C@@H](OCc2ccc(Cl)cc2)[C@@H]1O [Compound 13] | > 10
23 | CO[C@H]1[C@H](O)[C@@H](COCc2ccc3ccccc3c2)OC(OCc2ccc(Cl)cc2)[C@@H]1NC(=O)C1CCCN(C(=N)N)C1 (stereo partly drawn) [Compound 14] | > 10
24 | COC[C@H]1O[C@H](OCc2ccc3ccccc3c2)[C@H](NC(=O)CCN)[C@H](OCc2ccc3ccccc3c2)[C@@H]1O [Compound 15] | 2.26

Target: T5, Human SST5 somatostatin receptor (SSTR5) (Homo sapiens, UniProt P35346)
T5 construct: expressed in transfected cells; host or cells: HEK-293 EBNA
T5 sequence (P35346 whole entry): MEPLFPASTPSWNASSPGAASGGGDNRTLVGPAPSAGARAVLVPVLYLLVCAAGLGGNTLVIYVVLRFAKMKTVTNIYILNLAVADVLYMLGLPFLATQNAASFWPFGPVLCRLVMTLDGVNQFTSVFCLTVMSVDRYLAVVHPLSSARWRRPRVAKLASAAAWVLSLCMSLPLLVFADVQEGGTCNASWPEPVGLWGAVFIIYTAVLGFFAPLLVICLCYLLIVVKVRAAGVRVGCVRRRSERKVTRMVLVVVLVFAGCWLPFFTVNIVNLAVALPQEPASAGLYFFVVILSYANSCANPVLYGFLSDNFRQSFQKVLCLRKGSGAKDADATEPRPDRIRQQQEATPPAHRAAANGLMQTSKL
Assay: Filter plate assay for SST5 receptor, displacement of [125I]SST-14
Type: binding
Conditions: Table 8
In short: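 HEK-293 EBNA membranes expressing human SST5 (5.5 μg) incubated 60 min at 25 °C with 4 nM [125I]SST-14 and compound in pH 7.5 Tris/EGTA/MgCl2/sucrose buffer. Bound radioactivity collected on PEI-coated glass fiber filters and counted; triplicate 1:5 dilution series from 125 μM, non-specific binding with excess cold ligand.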

Row | SMILES | Ki [µM]
25 | COC[C@H]1O[C@@H](OCc2ccc3ccccc3c2)[C@H](NC(=O)CCN=C(N)N)[C@H](OCc2ccc3ccccc3c2)[C@@H]1O [Compound 8] | 0.598
26 | COC[C@H]1O[C@@H](OCc2ccc3ccccc3c2)[C@H](NC(=O)CCCN)[C@@H](OCc2ccc(Cl)cc2)[C@@H]1O [Compound 12] | 0.046
27 | COC[C@H]1O[C@H](OCc2ccc3ccccc3c2)[C@H](NC(=O)CCCN)[C@@H](OCc2ccc(Cl)cc2)[C@@H]1O [Compound 13] | 0.062
28 | CO[C@H]1[C@H](O)[C@@H](COCc2ccc3ccccc3c2)OC(OCc2ccc(Cl)cc2)[C@@H]1NC(=O)C1CCCN(C(=N)N)C1 (stereo partly drawn) [Compound 14] | 0.549
29 | COC[C@H]1O[C@H](OCc2ccc3ccccc3c2)[C@H](NC(=O)CCN)[C@H](OCc2ccc3ccccc3c2)[C@@H]1O [Compound 15] | 0.073

Same assay, conditions: Table 8; shown where Ki could not be determined (NoModel); read-out: IC50 SSTR5 (in parentheses)

Row | SMILES | IC50 [µM]
30 | COC[C@H]1OC(OCc2ccc3ccccc3c2)[C@H](NC(=O)CCCN)[C@@H](OCc2ccc3ccccc3c2)[C@@H]1O (stereo partly drawn) [Compound 11] | 0.003

Tested on: Human Umbilical Vein Endothelial Cells (HUVEC)
Assay: Endothelial cell proliferation assay (MTS)
Type: cell-based
Conditions: 125 uM, 48 hrs
Method: Human Umbilical Vein Endothelial Cells (HUVEC from Clonetics) were plated in 96 well plates at 1000 cell per well in EGM-2 medium (Clonetics). Cells were grown overnight at 37° C. in 5% CO2. Fresh EGM-2 medium containing compound at the desired concentration was added to the wells and the cells allowed to grow for a further 48 hrs. A MTS (Promega) colorimetric assay was performed after 48 hrs to determine cell growth according to the manufacturers instructions. Results are presented in terms of percentage growth.

Row | SMILES | Percent cell growth at 125 µM [%]
31 | COC[C@H]1O[C@@H](OCc2ccc3ccccc3c2)[C@H](NC(=O)CCN=C(N)N)[C@H](OCc2ccc3ccccc3c2)[C@@H]1O [Compound 8] | 66
32 | COC[C@H]1OC(OCc2ccc3ccccc3c2)[C@H](NC(=O)CCCN)[C@@H](OCc2ccc3ccccc3c2)[C@@H]1O (stereo partly drawn) [Compound 11] | 29
33 | COC[C@H]1O[C@@H](OCc2ccc3ccccc3c2)[C@H](NC(=O)CCCN)[C@@H](OCc2ccc(Cl)cc2)[C@@H]1O [Compound 12] | -95
34 | COC[C@H]1O[C@H](OCc2ccc3ccccc3c2)[C@H](NC(=O)CCCN)[C@@H](OCc2ccc(Cl)cc2)[C@@H]1O [Compound 13] | 58
35 | CO[C@H]1[C@H](O)[C@@H](COCc2ccc3ccccc3c2)OC(OCc2ccc(Cl)cc2)[C@@H]1NC(=O)C1CCCN(C(=N)N)C1 (stereo partly drawn) [Compound 14] | -95
36 | COC[C@H]1O[C@H](OCc2ccc3ccccc3c2)[C@H](NC(=O)CCN)[C@H](OCc2ccc3ccccc3c2)[C@@H]1O [Compound 15] | -78

Same assay, conditions: 250 uM, 48 hrs

Row | SMILES | Percent cell growth at 250 µM [%]
37 | COC[C@H]1O[C@@H](OCc2ccc3ccccc3c2)[C@H](NC(=O)CCN=C(N)N)[C@H](OCc2ccc3ccccc3c2)[C@@H]1O [Compound 8] | -18
38 | COC[C@H]1OC(OCc2ccc3ccccc3c2)[C@H](NC(=O)CCCN)[C@@H](OCc2ccc3ccccc3c2)[C@@H]1O (stereo partly drawn) [Compound 11] | -53
39 | COC[C@H]1O[C@@H](OCc2ccc3ccccc3c2)[C@H](NC(=O)CCCN)[C@@H](OCc2ccc(Cl)cc2)[C@@H]1O [Compound 12] | -71
40 | COC[C@H]1O[C@H](OCc2ccc3ccccc3c2)[C@H](NC(=O)CCCN)[C@@H](OCc2ccc(Cl)cc2)[C@@H]1O [Compound 13] | -80
41 | CO[C@H]1[C@H](O)[C@@H](COCc2ccc3ccccc3c2)OC(OCc2ccc(Cl)cc2)[C@@H]1NC(=O)C1CCCN(C(=N)N)C1 (stereo partly drawn) [Compound 14] | -90
42 | COC[C@H]1O[C@H](OCc2ccc3ccccc3c2)[C@H](NC(=O)CCN)[C@H](OCc2ccc3ccccc3c2)[C@@H]1O [Compound 15] | -67

— US20080280837A1, “Biologically Active Compounds with Anti-Angiogenic Properties” (priority 2004, published 2008)
